{"source": "ChEMBL document CHEMBL1132484", "about": "“New alpha-substituted succinate-based hydroxamic acids as TNFalpha convertase inhibitors” (J Med Chem, 1999)", "key": {"[1]": {"biological_target": "T1, Interstitial collagenase (Homo sapiens, UniProt P03956)", "T1 sequence (P03956 whole entry)": "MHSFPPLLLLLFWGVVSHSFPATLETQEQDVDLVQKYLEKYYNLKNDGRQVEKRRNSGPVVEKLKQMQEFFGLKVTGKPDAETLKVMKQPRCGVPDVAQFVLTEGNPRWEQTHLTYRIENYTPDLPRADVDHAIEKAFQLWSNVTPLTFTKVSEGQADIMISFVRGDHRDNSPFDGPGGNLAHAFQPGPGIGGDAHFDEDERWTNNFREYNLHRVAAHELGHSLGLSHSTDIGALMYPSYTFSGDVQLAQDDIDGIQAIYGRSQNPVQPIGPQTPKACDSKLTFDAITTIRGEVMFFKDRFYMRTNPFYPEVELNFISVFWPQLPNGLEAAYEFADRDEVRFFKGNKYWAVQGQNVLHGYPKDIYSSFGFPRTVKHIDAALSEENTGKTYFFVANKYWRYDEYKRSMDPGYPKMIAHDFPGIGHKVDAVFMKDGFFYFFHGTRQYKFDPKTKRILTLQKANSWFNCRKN", "test": "Inhibitory activity against MMP-1 (Matrix metalloprotease-1)"}, "[2]": {"biological_target": "T2, Disintegrin and metalloproteinase domain-containing protein 17 (Homo sapiens, UniProt P78536)", "T2 sequence (P78536 whole entry, the tested form may be a part)": "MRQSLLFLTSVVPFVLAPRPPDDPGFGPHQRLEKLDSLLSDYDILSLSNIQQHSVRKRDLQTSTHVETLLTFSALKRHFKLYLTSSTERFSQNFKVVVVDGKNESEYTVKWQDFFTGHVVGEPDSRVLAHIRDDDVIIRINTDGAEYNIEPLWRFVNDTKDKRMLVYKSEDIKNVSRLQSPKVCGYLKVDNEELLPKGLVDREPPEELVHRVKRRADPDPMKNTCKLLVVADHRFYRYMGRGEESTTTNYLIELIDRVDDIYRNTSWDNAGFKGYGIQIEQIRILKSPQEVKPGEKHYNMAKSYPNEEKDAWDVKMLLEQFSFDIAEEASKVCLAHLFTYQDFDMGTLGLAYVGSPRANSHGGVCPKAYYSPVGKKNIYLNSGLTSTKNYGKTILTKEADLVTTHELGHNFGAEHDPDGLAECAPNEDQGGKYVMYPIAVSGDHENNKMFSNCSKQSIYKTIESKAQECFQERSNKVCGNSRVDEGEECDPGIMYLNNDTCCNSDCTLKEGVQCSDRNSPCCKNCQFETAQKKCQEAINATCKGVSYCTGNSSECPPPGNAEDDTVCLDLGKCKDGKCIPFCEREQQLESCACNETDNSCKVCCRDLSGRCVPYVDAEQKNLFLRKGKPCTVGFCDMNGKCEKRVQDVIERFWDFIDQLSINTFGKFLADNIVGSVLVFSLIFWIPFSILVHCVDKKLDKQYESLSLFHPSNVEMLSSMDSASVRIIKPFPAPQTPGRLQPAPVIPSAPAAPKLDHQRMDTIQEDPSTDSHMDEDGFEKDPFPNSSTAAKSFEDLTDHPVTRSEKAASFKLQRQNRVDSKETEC", "test": "Inhibition of TNF(tumor necrosis factor) in human blood", "assay_type": "functional"}, "[3]": {"biological_target": "T2, Disintegrin and metalloproteinase domain-containing protein 17", "test": "Inhibitory activity against Tumor necrosis factor alpha-converting enzyme (TACE) in blood.", "assay_type": "tissue-based"}, "[4]": {"biological_target": "Neutrophil collagenase (Homo sapiens, UniProt P22894)", "sequence (P22894 whole entry)": "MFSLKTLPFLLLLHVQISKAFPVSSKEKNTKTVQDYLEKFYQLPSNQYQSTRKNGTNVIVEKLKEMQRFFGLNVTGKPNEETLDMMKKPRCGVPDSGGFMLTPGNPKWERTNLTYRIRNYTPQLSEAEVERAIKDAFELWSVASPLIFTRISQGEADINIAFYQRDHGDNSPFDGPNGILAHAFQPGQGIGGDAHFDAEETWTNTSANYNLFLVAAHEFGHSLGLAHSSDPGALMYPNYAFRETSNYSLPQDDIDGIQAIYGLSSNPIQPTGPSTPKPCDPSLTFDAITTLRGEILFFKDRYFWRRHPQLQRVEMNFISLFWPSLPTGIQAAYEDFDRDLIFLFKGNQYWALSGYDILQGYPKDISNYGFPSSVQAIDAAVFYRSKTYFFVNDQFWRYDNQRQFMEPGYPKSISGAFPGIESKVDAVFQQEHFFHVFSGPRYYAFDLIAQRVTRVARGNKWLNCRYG", "test": "Inhibition of MMP-8 (matrix metalloprotease-8)"}}, "data": [{"smiles": "CNC(=O)[C@@H](NC(=O)[C@H](CC(C)C)[C@H](NS(=O)(=O)c1cccc2cnccc12)C(=O)NO)C(C)(C)C", "values": [{"measurement": "IC50", "setting": "[1]", "value": 2.6, "unit": "nM"}, {"measurement": "IC50", "setting": "[2]", "value": 1100, "unit": "nM"}, {"measurement": "IC50", "setting": "[3]", "value": 3.1, "unit": "nM"}]}, {"smiles": "CNC(=O)[C@@H](NC(=O)[C@H](CC(C)C)[C@@H](C(=O)NO)N1CCOCC1)C(C)(C)C", "values": [{"measurement": "IC50", "setting": "[1]", "value": 2.2, "unit": "nM"}, {"measurement": "IC50", "setting": "[2]", "value": 3000, "unit": "nM"}, {"measurement": "IC50", "setting": "[3]", "value": 3.4, "unit": "nM"}]}, {"smiles": "CNC(=O)[C@@H](NC(=O)[C@H](CC(C)C)[C@H](NC(=O)c1cccc2cccnc12)C(=O)NO)C(C)(C)C", "values": [{"measurement": "IC50", "setting": "[1]", "value": 2.2, "unit": "nM"}, {"measurement": "IC50", "setting": "[2]", "value": 8000, "unit": "nM"}, {"measurement": "IC50", "setting": "[3]", "value": 2, "unit": "nM"}]}, {"smiles": "CNC(=O)[C@@H](NC(=O)[C@H](CC(C)C)[C@H](OCc1ccc2c(ccc(=O)n2C)c1)C(=O)NO)C(C)(C)C", "values": [{"measurement": "IC50", "setting": "[1]", "value": 0.88, "unit": "nM"}, {"measurement": "IC50", "setting": "[2]", "value": 1440, "unit": "nM"}, {"measurement": "IC50", "setting": "[3]", "value": 1, "unit": "nM"}]}, {"smiles": "CNC(=O)[C@@H](NC(=O)[C@H](CC(C)C)[C@H](NS(=O)(=O)c1cccc2cccnc12)C(=O)NO)C(C)(C)C", "values": [{"measurement": "IC50", "setting": "[1]", "value": 1.1, "unit": "nM"}, {"measurement": "IC50", "setting": "[2]", "value": 8100, "unit": "nM"}, {"measurement": "IC50", "setting": "[3]", "value": 4.2, "unit": "nM"}]}, {"smiles": "CNC(=O)[C@@H](NC(=O)[C@H](CC(C)C)[C@H](SCc1cccc2cccnc12)C(=O)NO)C(C)(C)C", "values": [{"measurement": "IC50", "setting": "[1]", "value": 2.8, "unit": "nM"}, {"measurement": "IC50", "setting": "[2]", "value": 6200, "unit": "nM"}, {"measurement": "IC50", "setting": "[3]", "value": 0.8, "unit": "nM"}]}, {"smiles": "CNC(=O)[C@@H](NC(=O)[C@H](CC(C)C)[C@H](NS(=O)(=O)c1ccc2ncnc(O)c2c1)C(=O)NO)C(C)(C)C", "values": [{"measurement": "IC50", "setting": "[1]", "value": 1.3, "unit": "nM"}, {"measurement": "IC50", "setting": "[2]", "value": 280, "unit": "nM"}, {"measurement": "IC50", "setting": "[4]", "value": 3.7, "unit": "nM"}, {"measurement": "IC50", "setting": "[3]", "value": 0.57, "unit": "nM"}]}, {"smiles": "CNC(=O)[C@@H](NC(=O)[C@H](CC(C)C)[C@@H](C(=O)NO)N(C)S(=O)(=O)c1cccc2cccnc12)C(C)(C)C", "values": [{"measurement": "IC50", "setting": "[1]", "value": 2.4, "unit": "nM"}, {"measurement": "IC50", "setting": "[2]", "value": 4500, "unit": "nM"}, {"measurement": "IC50", "setting": "[3]", "value": 4.4, "unit": "nM"}]}, {"smiles": "CNC(=O)[C@@H](NC(=O)[C@H](CC(C)C)[C@H](NS(=O)(=O)c1ccc2ncccc2c1)C(=O)NO)C(C)(C)C", "values": [{"measurement": "IC50", "setting": "[1]", "value": 1.2, "unit": "nM"}, {"measurement": "IC50", "setting": "[2]", "value": 440, "unit": "nM"}, {"measurement": "IC50", "setting": "[3]", "value": 1.6, "unit": "nM"}]}, {"smiles": "CNC(=O)[C@@H](NC(=O)[C@H](CCCOCc1ccccc1)[C@H](OCc1ccc2nc(C)nc(O)c2c1)C(=O)NO)C(C)(C)C", "values": [{"measurement": "IC50", "setting": "[1]", "value": 330, "unit": "nM"}, {"measurement": "IC50", "setting": "[3]", "value": 12, "unit": "nM"}]}, {"smiles": "CNC(=O)[C@@H](NC(=O)[C@H](CC(C)C)[C@H](NCc1cccc2cccnc12)C(=O)NO)C(C)(C)C", "values": [{"measurement": "IC50", "setting": "[1]", "value": 1.7, "unit": "nM"}, {"measurement": "IC50", "setting": "[2]", "value": 34000, "unit": "nM"}, {"measurement": "IC50", "setting": "[4]", "value": 0.2, "unit": "nM"}, {"measurement": "IC50", "setting": "[3]", "value": 0.23, "unit": "nM"}]}, {"smiles": "CNC(=O)[C@@H](NC(=O)C(CC(C)C)C(NCc1ccccc1)C(=O)NO)C(C)(C)C", "note": "(single isomer, unassigned)", "values": [{"measurement": "IC50", "setting": "[2]", "value": 6100, "unit": "nM"}, {"measurement": "IC50", "setting": "[3]", "value": 2.8, "unit": "nM"}]}, {"smiles": "CNC(=O)[C@@H](NC(=O)C(CC(C)C)C(C(=O)NO)C1CCCC1)C(C)(C)C", "note": "(single isomer, unassigned)", "values": [{"measurement": "IC50", "setting": "[1]", "value": 4, "unit": "nM"}, {"measurement": "IC50", "setting": "[2]", "value": 8800, "unit": "nM"}, {"measurement": "IC50", "setting": "[4]", "value": 20, "unit": "nM"}, {"measurement": "IC50", "setting": "[3]", "value": 1, "unit": "nM"}]}, {"smiles": "CNC(=O)[C@@H](NC(=O)C(CC(C)C)C(C(=O)NO)N(C)S(=O)(=O)c1ccccc1)C(C)(C)C", "note": "(single isomer, unassigned)", "values": [{"measurement": "IC50", "setting": "[1]", "value": 1.5, "unit": "nM"}, {"measurement": "IC50", "setting": "[2]", "value": 3000, "unit": "nM"}, {"measurement": "IC50", "setting": "[3]", "value": 0.61, "unit": "nM"}]}, {"smiles": "CNC(=O)[C@@H](NC(=O)C(CC(C)C)C(NS(=O)(=O)c1ccccc1)C(=O)NO)C(C)(C)C", "note": "(single isomer, unassigned)", "values": [{"measurement": "IC50", "setting": "[2]", "value": 1300, "unit": "nM"}, {"measurement": "IC50", "setting": "[3]", "value": 1.5, "unit": "nM"}]}, {"smiles": "CNC(=O)[C@@H](NC(=O)C(CC(C)C)C(OCc1cc2c(=O)[nH]c(C)nc2cc1Br)C(=O)NO)C(C)(C)C", "note": "(single isomer, unassigned)", "values": [{"measurement": "IC50", "setting": "[2]", "value": 4300, "unit": "nM"}, {"measurement": "IC50", "setting": "[3]", "value": 0.33, "unit": "nM"}]}, {"smiles": "CNC(=O)[C@@H](NC(=O)C(CC(C)C)C(NS(=O)(=O)c1ccc(NC(C)=O)cc1)C(=O)NO)C(C)(C)C", "note": "(single isomer, unassigned)", "values": [{"measurement": "IC50", "setting": "[2]", "value": 1200, "unit": "nM"}, {"measurement": "IC50", "setting": "[3]", "value": 1.3, "unit": "nM"}]}, {"smiles": "CNC(=O)[C@@H](NC(=O)C(CC(C)C)C(NS(=O)(=O)c1ccc(Br)cc1)C(=O)NO)C(C)(C)C", "note": "(single isomer, unassigned)", "values": [{"measurement": "IC50", "setting": "[2]", "value": 4400, "unit": "nM"}, {"measurement": "IC50", "setting": "[3]", "value": 1.4, "unit": "nM"}]}, {"smiles": "C=CCC(C(=O)NO)C(CC(C)C)C(=O)N[C@@H](Cc1ccccc1)C(=O)NC", "note": "(single isomer, unassigned)", "values": [{"measurement": "IC50", "setting": "[2]", "value": 2300, "unit": "nM"}, {"measurement": "IC50", "setting": "[4]", "value": 3, "unit": "nM"}, {"measurement": "IC50", "setting": "[3]", "value": 0.2, "unit": "nM"}]}, {"smiles": "CNC(=O)[C@@H](NC(=O)C(CC(C)C)C(NS(=O)(=O)c1cc(Cl)cc(Cl)c1)C(=O)NO)C(C)(C)C", "note": "(single isomer, unassigned)", "values": [{"measurement": "IC50", "setting": "[2]", "value": 11300, "unit": "nM"}, {"measurement": "IC50", "setting": "[3]", "value": 1, "unit": "nM"}]}, {"smiles": "CC1(C)SCCN(S(=O)(=O)c2ccc(Oc3ccncc3)cc2)[C@H]1C(=O)NO", "note": "[PRINOMASTAT]", "values": [{"measurement": "IC50", "setting": "[2]", "value": 16600, "unit": "nM"}, {"measurement": "IC50", "setting": "[3]", "value": 5.5, "unit": "nM"}]}, {"smiles": "CNC(=O)[C@@H](NC(=O)[C@@H](CC(=O)NO)CC(C)C)C(C)(C)C", "note": "[RO-319790]", "values": [{"measurement": "IC50", "setting": "[1]", "value": 10, "unit": "nM"}, {"measurement": "IC50", "setting": "[2]", "value": "> 50000", "unit": "nM"}, {"measurement": "IC50", "setting": "[3]", "value": 20, "unit": "nM"}]}]}
